Literature values as cited in patent US20130217673A1, “MIXED MONOAMINE REUPTAKE INHIBITOR IN A BIODEGRADABLE POLYMER CARRIER” (Warsaw Orthopedic, Inc, priority 2012, published 2013).

Test system: nociception
Settings: compared with bupivacaine

| SMILES | duration of the effect in blocking nociception | potency in blocking nociception relative to bupivacaine |
| --- | --- | --- |
| CN(C)CCC=C1c2ccccc2CCc2ccccc21 [amitryptyline, 3-(10,11-dihydro-5H-dibenzo[a,d]cycloheptene-5-ylidene)-N,N-dimethylpropan-1-amine] | the effects last longer | at least three times more potent than bupivacaine |
| CN(C)CCC=C1c2ccccc2COc2ccccc21 [doxepin] | the effects last longer | at least three times more potent than bupivacaine |
